According to US8389523B2, “Substituted quinoxaline and an agrochemical composition thereof” (Kumiai Chemical Industry Co., Ltd., priority 2007, dated 2013):

Key:
Type in all cases: in vivo
Design in all cases: scale not given here
[1] = system: Echinochloa oryzicola Vasing; assay: Herbicidal effects in paddy field soil treatment (Test Example 1); settings: for Herbicidal effects index, Echinochloa oryzicola Vasing: paddy field soil treatment, 1000 g of the active ingredient per hectare, wettable powder added dropwise on water surface, 21st day after treatment
Method in brief: (§1)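 Sow seeds in puddled, leveled paddy soil; waterlog to 3 cm depth. On the following day apply water-diluted wettable powder onto the water surface (1000 g a.i./ha). Grow in greenhouse and assess herbicidal effect at day 21.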

[2] = system: Monochoria vaginalis (Burm. f.) Presl var. plantaginea (Roxb.) Solms-Laub.; assay: as above; settings: for Herbicidal effects index, Monochoria vaginalis (Burm. f.) Presl var. plantaginea (Roxb.) Solms-Laub.: paddy field soil treatment, 1000 g of the active ingredient per hectare, wettable powder added dropwise on water surface, 21st day after treatment
Method in brief: as §1

[3] = system: Scirpus juncoides Roxb. var. ohwianus. T. Koyama; assay: as above; settings: for Herbicidal effects index, Scirpus juncoides Roxb. var. ohwianus. T. Koyama: paddy field soil treatment, 1000 g of the active ingredient per hectare, wettable powder added dropwise on water surface, 21st day after treatment
Method in brief: as §1

[4] = system: Abutilon theophrasti medicus; assay: Herbicidal effects in upland field soil treatment (Test Example 2); settings: 1000 g active ingredient per hectare, 21st day after treatment, criteria of Table 138
Method in brief: (§2)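 Upland soil, seeds sown and covered → diluted WP sprayed uniformly onto soil surface (1000 L/ha; 1000 g a.i./ha) → greenhouse → effect scored day 21.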

Amaranthus viridis L. [5] = assay: as above; settings: 1000 g active ingredient per hectare, 21st day after treatment, criteria of Table 138
Method in brief: as §2

[6] = system: Abutilon theophrasti medicus; assay: Herbicidal effects in upland field foliar treatment (Test Example 3); settings: criteria of Table 138; for herbicidal effects on Abutilon theophrasti medicus: 1000 g of the active ingredient per hectare, 14th day after the treatment, wettable powder; for herbicidal effect (index) on Abutilon theophrasti medicus: 1000 g active ingredient per hectare, 14th day after treatment
Method in brief: (§3)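 Seeds sown in upland soil, grown 2 weeks in greenhouse; whole-plant overhead spray of diluted wettable powder at 1000 g a.i./ha (1000 L/ha); kept in greenhouse; effects graded by criteria at 14 d.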

Amaranthus viridis L. [7] = assay: as above; settings: criteria of Table 138; for herbicidal effects on Amaranthus viridis L.: 1000 g of the active ingredient per hectare, 14th day after the treatment, wettable powder; for herbicidal effect (index) on Amaranthus viridis L.: 1000 g active ingredient per hectare, 14th day after treatment
Method in brief: as §3

[8] = system: Echinochloa crus-galli (L.) P. Beauv. var. crus-galli; assay: as above; settings: criteria of Table 138; for herbicidal effects on Echinochloa crus-galli (L.) P. Beauv. var. crus-galli: 1000 g of the active ingredient per hectare, 14th day after the treatment, wettable powder; for herbicidal effect (index) on Echinochloa crus-galli (L.) P. Beauv. var. crus-galli: 1000 g active ingredient per hectare, 14th day after treatment
Method in brief: as §3

[9] = paddy field soil treatment (Test Example 1), criteria of Table 138

Row | SMILES | Herbicidal effects index, Echinochloa oryzicola Vasing [1] | Herbicidal effects index, Monochoria vaginalis (Burm. f.) Presl var. plantaginea (Roxb.) Solms-Laub. [2] | Herbicidal effects index, Scirpus juncoides Roxb. var. ohwianus. T. Koyama [3] | herbicidal effect (index) on Abutilon theophrasti medicus [4] | herbicidal effect (index) on Amaranthus viridis L. (Amaranthus viridis L. [5]) | herbicidal effects on Abutilon theophrasti medicus [6] | herbicidal effects on Amaranthus viridis L. (Amaranthus viridis L. [7]) | herbicidal effects on Echinochloa crus-galli (L.) P. Beauv. var. crus-galli [8] | herbicidal effect (index) on Abutilon theophrasti medicus [6] | herbicidal effect (index) on Amaranthus viridis L. (Amaranthus viridis L. [7]) | herbicidal effect (index) on Echinochloa crus-galli (L.) P. Beauv. var. crus-galli [8] | herbicidal effect (index) on Echinochloa oryzicola Vasing [1, 9] | herbicidal effect (index) on Monochoria vaginalis (Burm. f.) Presl var. plantaginea (Roxb.) Solms-Laub. [2, 9] | herbicidal effect (index) on Scirpus juncoides Roxb. var. ohwianus. T. Koyama [3, 9]
1 | COc1cc(-n2c(=O)c(C(=O)C3=C(O)CCCC3=O)nc3cc(F)ccc32)cc(OC)c1OC [II-238] | 5 | 5 | 5 | 5 | 5 | 5 | 5 | 5 | – | – | – | – | – | –
2 | COc1ccc(-n2c(=O)c(C(=O)C3=C(O)C(C)(C)CCC3=O)nc3ccccc32)cc1 [II-63] | 5 | 5 | 5 | 5 | 5 | 4 | 5 | 5 | – | – | – | – | – | –
3 | O=C1CCCC(O)=C1C(=O)c1nc2ccccc2n(-c2nc(C(F)(F)F)co2)c1=O [I-268] | 5 | 5 | 5 | 5 | 5 | – | – | – | 5 | 5 | 5 | – | – | –
4 | O=C(C1=C(O)C2CCC(C2)C1=O)c1nc2ccccc2n(COCC(F)(F)F)c1=O (stereo not shown) [I-62] | 5 | 5 | 5 | 5 | 5 | – | – | – | 5 | 5 | 5 | – | – | –
5 | O=C1CCCC(O)=C1C(=O)c1nc2ccccc2n(-c2ccc(OC(F)F)cc2)c1=O [II-95] | 5 | 5 | 5 | 5 | 5 | 5 | 5 | 5 | – | – | – | – | – | –
6 | CC(C)Oc1ccc(-n2c(=O)c(C(=O)C3=C(O)CCCC3=O)nc3ccccc32)cc1 [II-75] | 5 | 5 | 5 | 4 | 5 | 4 | 5 | 5 | – | – | – | – | – | –
7 | CCCn1c(=O)c(C(=O)C2=C(O)CCCC2=O)nc2ccccc21 [Compound I-12] | 5 | 5 | 5 | 5 | 5 | – | – | – | 5 | 5 | 4 | – | – | –
8 | Cc1cccnc1-n1c(=O)c(C(=O)C2=C(O)CCCC2=O)nc2ccccc21 [I-272] | 5 | 5 | 5 | 5 | 5 | – | – | – | 5 | 5 | 5 | – | – | –
9 | CCCCn1c(=O)c(C(=O)C2=C(O)CCCC2=O)nc2ccccc21 [Compound I-15] | 5 | 5 | 5 | 5 | 5 | – | – | – | 5 | 5 | 5 | – | – | –
10 | O=C1CCCC(O)=C1C(=O)c1nc2ccccc2n(-c2cccc3c2OCCO3)c1=O [II-226] | 5 | 5 | 5 | 5 | 5 | 5 | 5 | 5 | – | – | – | – | – | –
11 | COc1ccc(-n2c(=O)c(C(=O)C3=C(O)CCCC3=O)nc3cccnc32)cc1 [IV-62, 2-(2-hydroxy-6-oxo-1-cyclohexenecarbonyl)-4-(4-methoxyphenyl)-pyrido[2,3-b]pyrazin-3(4H)-one] | – | – | – | 5 | 5 | 5 | 5 | 5 | – | – | – | 5 | 5 | 5
12 | CCc1ccc(-n2c(=O)c(C(=O)C3=C(O)CCCC3=O)nc3cccnc32)cc1 [IV-24] | 5 | 5 | 5 | 5 | 5 | 4 | 5 | 5 | – | – | – | – | – | –
13 | CSCn1c(=O)c(C(=O)C2=C(O)CCCC2=O)nc2ccccc21 [I-70] | 5 | 5 | 5 | 5 | 5 | – | – | – | 5 | 5 | 5 | – | – | –
14 | CCCn1c(=O)c(C(=O)C2=C(O)CCCC2=O)nc2cccnc21 [III-12] | 5 | 5 | 5 | 4 | 5 | 5 | 5 | 4 | – | – | – | – | – | –
